Data reported in patent US6544971B1, “Method of increasing alertness by administration of a vomeropherin, and vomeropherin-emitting alarm devices” (Pherin Pharmaceuticals, Inc., priority 2000, dated 2003).

What was measured:
Assay type in all cases: in vivo
Human Subjects [1] = assay: Subjective in-session self-evaluation at half-hour intervals (questionnaire and 3 item analog sleepiness scale); details: for Self-Perception of Sleepiness, score on sleepiness scale inventory: scale 0 to 10, higher numbers more sleepiness
Procedure: Immediately prior to “lights out”, subjects were asked to lie in a supine position. The MVA was positioned in the right nostril, with its nozzle directed toward the right VNO opening. Later, the MVA was positioned in the left nostril for stimulation of the left VNO. Two pulses of air or the test compound or placebo were administered to each VNO. The same procedure was repeated 30 minutes later, at which times the investigator would enter the room and wake the subject if they were asleep, so that the total dose of the vomeropherin being administered to each subject was 800 pg.
At each 30 minute sleep interruption, prior to the test compound application, each subject was given a short questionnaire to record their perception of whether they were asleep, estimated time spent awake, and number of awakenings. In addition, sleepiness was measured by a 3 item analog scale inventory (scored from 0 to 10, higher numbers indicating more sleepiness) that included: a) readiness to get back to sleep; b) degree of anxiety and c) self rated level of sleepiness. […] Recordings began at 10:00 p.m. and lasted until 6:00 a.m. of the following day. Frontal, parietal and occipital electroencephalograms (EEG), electrooculograms, and electromyograms were recorded during the first hour. These recordings were coded and scored blind for non-rapid eye movement sleep latency from “lights out” to the appearance of the first minute of Stage 1 sleep, total wake time, wake time after sleep onset, and total sleep time. Sleep stages were assigned according to the criteria of Rechtschaffen and Kales (1968). All variables were scored separately for each 30-minute interval. Number of awakenings was tallied for the entire hour of recording.

Human Subjects [2] = assay: Sleep study by polysomnography (PSG) after VNO stimulation, randomized single-blind placebo-controlled; details: for Overall effect on sleep and arousal: conclusion from PSG and self-reports
Procedure: Three methods were used to assess sleep: 1) sleep study, 2) quantitative electroencephalography, and 3) psychometric tests. The study was carried out using a randomized, single-blind, placebo-controlled experimental design.
Screening was performed several days prior to the study session via clinical interviews and examination. Additionally, Hamilton A and D, and Covy tests were administered to determine concomitant anxiety or affective disorders. A thorough questionnaire regarding sleep habits and sleep pathologies was also administered to each subject. Criteria for inclusion in the study included subjects with a score of 12 or less on the Covy test and a score of 8 or less on the Hamilton A and Hamilton D tests, and absence of any medical or psychiatric conditions. Ten physically and mentally healthy young male adult subjects were selected for the study. All of them Were normal sleepers (i.e., they reported no difficulty in falling or remaining asleep at night, slept between 6 and 8.5 hours per night, and were alert during the daytime).
On the day of the study, they were instructed to refrain from napping, to avoid consuming alcohol or caffeine containing beverages, and to maintain a uniform daily level of activity. The ten subjects were divided into two groups of five, with the test compound being administered to one group and the other acting as a control.
The test compound was administered to the VNO using a manual vomeronasal applicator (MVA). This applicator comprises an air supply, delivering a 1 ml pulse of air; a valve system passing that pulse of air either through a chamber containing 30 mg of USP cotton that has been previously soaked with 1 ml of a 1 mg/ml solution of the test compound, estra-1,3,5(10),16-tetraen-3-yl acetate, in ethanol and allowed to dry overnight, or bypassing that chamber; a one-way flow valve; and a nozzle capable of being positioned in a nostril to provide direct administration to the lumen of the VNO. With a 1 ml air pulse, the MVA delivers 200 pg of the test compound to the VNO.
During the study, subjects spent one night in the sleep laboratory and underwent conventional polysomnography (PSG) only, during the first hour. The criteria for this short recording was based on previous findings showing that single dose VNO stimulation with the vomeropherins induced effects within one hour after stimulation. Before starting the recordings, each subject was questioned regarding distressing or extenuating events during that day that could contribute to sleep disruption. Times of last meal and physical exercise (if applicable) were also recorded. In order to determine whether the compound would affect daytime activities, or anterograde memory, judgment and motor skills were also evaluated both before going to sleep and in the morning. For this purpose, subjects were administered a maze test, a digit-symbol substitution test, a right and left manual coordination test (dot test), and a number repetition test as described in a previous publication (Monti, J. M., 1989, Slow Wave Sleep in Health and Disease. In: Waukier A., Dugovic C. and Radulovacki M. “Slow Wave Sleep.” New York, Raven Press. pp. […]).
Immediately prior to “lights out”, subjects were asked to lie in a supine position. The MVA was positioned in the right nostril, with its nozzle directed toward the right VNO opening. Later, the MVA was positioned in the left nostril for stimulation of the left VNO. […]

Human Subjects [3] = assay: Morning multiple-choice questionnaire and analog scale (sleep latency, duration, quality, status at waking)
Procedure: (§1) In the morning, all subjects completed a multiple-choice questionnaire regarding the following variables: sleep latency after last entry, estimated time sleeping, number of awakenings, and quality of sleep. General status at waking time was determined by marking on a 9 item analog scale inventory. In addition, all subjects were administered cognitive and motor performance tests identical to those received before bedtime.

Human Subjects [4] = assay: Cognitive and motor performance tests before sleep and in the morning (maze, digit-symbol substitution, dot test, number repetition); details: night versus morning tests
Source text: During the study, subjects spent one night in the sleep laboratory and underwent conventional polysomnography (PSG) only, during the first hour. The criteria for this short recording was based on previous findings showing that single dose VNO stimulation with the vomeropherins induced effects within one hour after stimulation. Before starting the recordings, each subject was questioned regarding distressing or extenuating events during that day that could contribute to sleep disruption. Times of last meal and physical exercise (if applicable) were also recorded. In order to determine whether the compound would affect daytime activities, or anterograde memory, judgment and motor skills were also evaluated both before going to sleep and in the morning. […]
as §1, with “In addition, all subjects were administered cognitive and motor performance tests identical to those received before bedtime.” left out

[5] = morning questionnaire, latency after last entry, 5 subjects per group
[6] = morning questionnaire, 5 subjects per group

CC(=O)Oc1ccc2c(c1)CC[C@@H]1[C@@H]2CC[C@]2(C)C=CC[C@@H]12 [Test Compound, estra-1,3,5(10),16-tetraen-3-yl acetate]
Self-Perception of Sleepiness, score on sleepiness scale inventory (Human Subjects [1]; First entry (beginning study), placebo 7.5): 6.0
Self-Perception of Sleepiness, score on sleepiness scale inventory (Human Subjects [1]; Second entry (60 min. int), after dosing, placebo 8.9): 3.2
Self-reported number of awakenings (Human Subjects [1]; self-evaluation at half-hour intervals, control group none to more than three): three or more
Effect on subject's self-perception of sleep (Human Subjects [1]; self-reports compared with PSG data): does not impair a subject's self-perception of sleep
Overall effect on sleep and arousal (Human Subjects [2]): possible psychostimulant effect
Overall effect on sleep and arousal (Human Subjects [2]; listed as estra-1,3,5(10),16-tetraen-3-yl acetate): primary arousing effect
Sleep Onset Latency (SOL), Mean (Human Subjects [2]; healthy young male adults, 5 per group, test compound to VNO by MVA, total 800 pg, first hour PSG, control group 16): 21 min
Wake Time after Sleep Onset, Mean (Human Subjects [2]; healthy young male adults, 5 per group, test compound to VNO by MVA, total 800 pg, first hour PSG, control group 17.7): 16.3 min
Total Sleep Time (TST), Mean (Human Subjects [2]; healthy young male adults, 5 per group, test compound to VNO by MVA, total 800 pg, first hour PSG, control group 26.0): 14.3 min
Sleep quality (disturbed or undisturbed) (Human Subjects [3]; classified by subjects in the morning): one subject in the test group defined their sleep as “disturbed”
Sleep Latencies <30 Minutes, number of subjects (Human Subjects [3]; [5]): 0 n
Sleep Latencies >30 minutes, number of subjects (Human Subjects [3]; [5]): 5 n
Sleep Duration 4-6 hours, number of subjects (Human Subjects [3]; [6]): 5
Sleep Duration 7-8 hours, number of subjects (Human Subjects [3]; [6]): 0
Reported sleep latency after VNO stimulation (Human Subjects [3]; morning quiz, control group shorter than 30 minutes): > 30 min
Condition at morning waking (index and visual analog scale) (Human Subjects [3]; versus placebo): did not show any difference
Change in scores for anterograde memory, judgment or motor dexterity (Human Subjects [4]): Neither the control nor the test group revealed any changes in scores
